Test results taken from patent US11707539B2, “FAP-targeted radiopharmaceuticals and imaging agents, and uses related thereto” (Trustees of Tufts College, priority 2020, dated 2023).
Where a SMILES comes first, the peptide text is derived from it.

What was measured:
[1] = Radiochemical purity by HPLC on storage at room temperature; format: physicochemical; conditions: three days at room temperature
Procedure: The labeling efficiency was analyzed by instant thin layer chromatography (iTLC) and was typically >98%. For iTLC analysis, 1 μL of diluted labeling solution was applied to a strip of iTLC-SA chromatography paper (Agilent P/N A120B12, 114×2.5 mm) and developed in 0.1M citrate buffer (8 cm solvent migration) to assess free ^177Lu (Rf >0.5) and [^177Lu]-6555 (Rf ˜0). The iTLC strips were analyzed using an Eckert & Ziegler AR-2000 Radio-TLC Imaging Scanner. The radiochemical purity was analyzed by high performance chromatography (HPLC) and was typically >90%. Briefly, the product was analyzed using a Phenomenex Luna 3.0 μm C18(2), 100A, 150 mm×4.6 mm column. Eluent A: 50 mM ammonium acetate in water, eluent B: acetonitrile. Gradient: 2% B from 0-5 min; 2% to 26% B from 5-20 min; 26% to 98% B from 20-25 min; 98% to 2% B from 25-26 min; 2% B from 26-30 min. Flow rate: 1.0 mL/min, Radio-HPLC detector: NaI (Eckert & Zeigler FC-1000), UV: 215 nm. The radiochemical purity remained >90% for three days at room temperature.
The above depicted radiopharmaceutical [^177Lu]-6952 can be prepared as described in Example 19 using the radiochemical precursor 6952 (Example 14 above). The labeling efficiency was analyzed by instant thin layer chromatography (iTLC) and was typically >98%. […] The iTLC strips were analyzed using an Eckert & Ziegler AR-2000 Radio-TLC Imaging Scanner. The radiochemical purity was analyzed by high performance chromatography (HPLC) and was typically >90%. Briefly, the product was analyzed using a Phenomenex Luna 3.0 m C18(2), 100A, 150 mm×4.6 mm column. […]
The labeling efficiency was analyzed by instant thin layer chromatography (iTLC) and was typically >95%. […] The iTLC strips were analyzed using an Eckert & Ziegler AR-2000 Radio-TLC Imaging Scanner. The radiochemical purity was analyzed by high performance chromatography (HPLC) and was typically >95%. Briefly, the product was analyzed using a Phenomenex Luna 3.0 m C18(2), 100Å, 150 mm×4.6 mm column. […]
The labeling efficiency was analyzed by instant thin layer chromatography (iTLC) and was typically >95%. […]

[2] = system: HEK-mFAP tumor xenografts; experiment: Efficacy and survival study, single injection; format: in vivo, mouse; conditions: single IV injection
Procedure: The aim of the study was to assess the therapeutic efficacy of a single injection of ^177Lu-PNT2004 ([^177Lu]-6522) by evaluating tumor growth delay and median survival. ^177Lu-PNT2004 ([^177Lu]-6522) was provided in 3 concentrations, ready for injection (80 μL/mouse), and the injected dose was determined using a well counter (Capintec calibration) #430x10.
A total of 30 HEK-mFAP tumor-bearing mice were used for the study.
Mouse health checks were performed throughout the study on a weekly basis including body weight measurements. Tumor growth was monitored weekly with caliper measurements (tumor volume=length×width^2×0.5). Study endpoints include tumor size >2 cm in any dimension, tumor ulceration, mouse is moribund, and >15% body weight lost from the last measurement. Mice were housed 5 to a cage with ad libitum access to food and water in 20° C. ambient temperature, 40%-50% humidity, and 12-hour light/12-hour dark cycle.
The mice were randomized into 5 groups, n=6 mice per group. The treatment compositions (1 through 5 above) were injected IV through the tail vein using a catheter (mounted with a 30 Ga needle). Injected doses were determined using a well counter (Capintec calibration). Tumor growth was monitored weekly with caliper measurements, and the mice were followed for survival.

[3] = system: HEK-mFAP tumor xenografts; experiment: In vivo biodistribution study of [177Lu]-6522, gamma counting; conditions: for Mean (% ID/g): i.v.

With C[C@@H](NC(=O)[C@H]1CC[C@H](CNC(=O)CN2CCN3CCN4CCN(CC2)CC(=O)[O][Lu]([O]C(=O)C3)[O]C(=O)C4)CC1)C(=O)N1CCC[C@H]1B(O)O [[^177Lu]-6952] the radiochemical purity remained [1] was over 90%.
C[C@@H](NC(=O)c1ccc(CNC(=O)CN2CCN3CCN4CCN(CC2)CC(=O)[O][Lu]([O]C(=O)C3)[O]C(=O)C4)cc1)C(=O)N1CCC[C@H]1B(O)O [[^177Lu]-6555] showed a radiochemical purity remained [1] of over 90%.
With CC(C)[C@H](NC(=O)CNC(=O)CNC(=O)CN1CCN2CCN3CCN(CC1)CC(=O)[O][Lu]([O]C(=O)C2)[O]C(=O)C3)C(=O)N[C@H](C)C(=O)N1CCC[C@H]1B(O)O [[^177Lu]-6522] (HELM PEPTIDE1{[O=C1CN2CCN3CCN(CC(=O)[*:2])CCN(CC2)CC(=O)[O][Lu]([O]1)[O]C(=O)C3].G.G.V.[dA].[OB(O)[C@@H]1CCCN1[*:1]]}$$$$V2.0) the survival benefit ([2]; 15 MBq) was “did not translate in a survival benefit”, the tumor growth delay ([2]; 15 MBq) was “tumor growth delay was observed” and the survival benefit ([2]; 30 MBq) was “did not translate in a survival benefit”. The tumor growth delay ([2]; 30 MBq) was “tumor growth delay was observed”, the “survival benefit compared to the vehicle or precursor group” value ([2]; 60 MBq) was “statically significant survival benefit” and the “Mean (% ID/g)” value ([3]; Blood, 4 h p.i.) was 0.3063 % ID/g. The “Mean (% ID/g)” value ([3]; Blood, 24 h p.i.) was 0.0085 % ID/g, the “Mean (% ID/g)” value ([3]; Blood, 48 h p.i.) was 0.0029 % ID/g and the “Mean (% ID/g)” value ([3]; Blood, 168 h p.i.) was 0.0015 % ID/g. The “Mean (% ID/g)” value ([3]; Bone, 4 h p.i.) was 1.8037 % ID/g, the “Mean (% ID/g)” value ([3]; Bone, 24 h p.i.) was 0.2658 % ID/g and the “Mean (% ID/g)” value ([3]; Bone, 48 h p.i.) was 0.4106 % ID/g. The “Mean (% ID/g)” value ([3]; Bone, 168 h p.i.) was 0.3959 % ID/g, the “Mean (% ID/g)” value ([3]; Brain, 4 h p.i.) was 0.0281 % ID/g and the “Mean (% ID/g)” value ([3]; Brain, 24 h p.i.) was 0.0036 % ID/g. The “Mean (% ID/g)” value ([3]; Brain, 48 h p.i.) was 0.0033 % ID/g, the “Mean (% ID/g)” value ([3]; Brain, 168 h p.i.) was 0.0020 % ID/g and the “Mean (% ID/g)” value ([3]; Heart, 4 h p.i.) was 0.1528 % ID/g. The “Mean (% ID/g)” value ([3]; Heart, 24 h p.i.) was 0.0332 % ID/g, the “Mean (% ID/g)” value ([3]; Heart, 48 h p.i.) was 0.0311 % ID/g and the “Mean (% ID/g)” value ([3]; Heart, 168 h p.i.) was 0.0256 % ID/g. For the same compound, the “Mean (% ID/g)” value ([3]; Kidneys, 4 h p.i.) was 2.3525 % ID/g, the “Mean (% ID/g)” value ([3]; Kidneys, 4 h p.i., listed as Compound #2) was 2.35±0.51 % ID/g and the “Mean (% ID/g)” value ([3]; Kidneys, 24 h p.i.) was 0.9585 % ID/g. The “Mean (% ID/g)” value ([3]; Kidneys, 48 h p.i.) was 0.5318 % ID/g, the “Mean (% ID/g)” value ([3]; Kidneys, 168 h (day 7) p.i.) was 0.1670 % ID/g and the “Mean (% ID/g)” value ([3]; Kidneys, 168 h (day 7) p.i., listed as Compound #2) was 0.17±0.02 % ID/g. For the same compound, the “Mean (% ID/g)” value ([3]; Liver, 4 h p.i.) was 0.3774 % ID/g, the “Mean (% ID/g)” value ([3]; Liver, 24 h p.i.) was 0.1585 % ID/g and the “Mean (% ID/g)” value ([3]; Liver, 48 h p.i.) was 0.1237 % ID/g. For the same compound, the “Mean (% ID/g)” value ([3]; Liver, 168 h p.i.) was 0.0725 % ID/g, the “Mean (% ID/g)” value ([3]; Lung, 4 h p.i.) was 0.3331 % ID/g and the “Mean (% ID/g)” value ([3]; Lung, 24 h p.i.) was 0.0306 % ID/g. For the same compound, the “Mean (% ID/g)” value ([3]; Lung, 48 h p.i.) was 0.0312 % ID/g, the “Mean (% ID/g)” value ([3]; Lung, 168 h p.i.) was 0.0257 % ID/g and the “Mean (% ID/g)” value ([3]; Muscle, 4 h p.i.) was 0.4649 % ID/g. For the same compound, the “Mean (% ID/g)” value ([3]; Muscle, 24 h p.i.) was 0.0315 % ID/g, the “Mean (% ID/g)” value ([3]; Muscle, 48 h p.i.) was 0.0518 % ID/g and the “Mean (% ID/g)” value ([3]; Muscle, 168 h p.i.) was 0.0604 % ID/g. The “Mean (% ID/g)” value ([3]; Pancreas, 4 h p.i.) was 0.2167 % ID/g, the “Mean (% ID/g)” value ([3]; Pancreas, 24 h p.i.) was 0.0347 % ID/g and the “Mean (% ID/g)” value ([3]; Pancreas, 48 h p.i.) was 0.0275 % ID/g. The “Mean (% ID/g)” value ([3]; Pancreas, 168 h p.i.) was 0.0197 % ID/g, the “Mean (% ID/g)” value ([3]; Skin, 4 h p.i.) was 0.9769 % ID/g and the “Mean (% ID/g)” value ([3]; Skin, 24 h p.i.) was 0.1158 % ID/g. For the same compound, the “Mean (% ID/g)” value ([3]; Skin, 48 h p.i.) was 0.0906 % ID/g, the “Mean (% ID/g)” value ([3]; Skin, 168 h p.i.) was 0.0837 % ID/g and the “Mean (% ID/g)” value ([3]; Small intestine, 4 h p.i.) was 0.2091 % ID/g. For the same compound, the “Mean (% ID/g)” value ([3]; Small intestine, 24 h p.i.) was 0.0580 % ID/g, the “Mean (% ID/g)” value ([3]; Small intestine, 48 h p.i.) was 0.0499 % ID/g and the “Mean (% ID/g)” value ([3]; Small intestine, 168 h p.i.) was 0.0277 % ID/g. For the same compound, the “Mean (% ID/g)” value ([3]; Spleen, 4 h p.i.) was 0.2587 % ID/g, the “Mean (% ID/g)” value ([3]; Spleen, 24 h p.i.) was 0.1418 % ID/g and the “Mean (% ID/g)” value ([3]; Spleen, 48 h p.i.) was 0.1340 % ID/g. For the same compound, the “Mean (% ID/g)” value ([3]; Spleen, 168 h p.i.) was 0.1437 % ID/g, the “Mean (% ID/g)” value ([3]; Stomach, 4 h p.i.) was 0.1706 % ID/g and the “Mean (% ID/g)” value ([3]; Stomach, 24 h p.i.) was 0.0528 % ID/g. The “Mean (% ID/g)” value ([3]; Stomach, 48 h p.i.) was 0.0331 % ID/g, the “Mean (% ID/g)” value ([3]; Stomach, 168 h p.i.) was 0.0210 % ID/g and the “Mean (% ID/g)” value ([3]; Tumor, 4 h p.i.) was 33.0435 % ID/g. For the same compound, the “Mean (% ID/g)” value ([3]; Tumor, 4 h p.i., listed as Compound #2) was 33.04±5.29 % ID/g, the “Mean (% ID/g)” value ([3]; Tumor, 24 h p.i.) was 12.9944 % ID/g and the “Mean (% ID/g)” value ([3]; Tumor, 48 h p.i.) was 7.6749 % ID/g. The “Mean (% ID/g)” value ([3]; Tumor, 168 h p.i.) was 3.9910 % ID/g and the “localization in tumor and normal tissue uptake” value ([3]; up to 168 h p.i.) was “high localization in tumor xenografts and low normal tissue uptake”.
